Data from US9592183B2, “Inhibitor of endothelin action and skin-whitening agent” (Kao Corporation, priority 2010, dated 2017).
Entries after “also recorded” stand apart in the source; their conditions may differ.

What was measured:
Assay type in all cases: cell-based
[1] = system: melanocyte-containing, 3-D cultured skin model (MEL300A); test: Melanin production-suppressing effect in 3-D cultured skin model stimulated with ET-1 and SCF; conditions: 14 days; for Effect on melanin content / melanin production (in words): 3-D skin model
Method: (§1) A melanocyte-containing, 3-D cultured skin model (MEL300A, KURABO INDUSTRIES LTD.) was cultured at 37° C. under 5% CO2 using an EPI-100-NMM113 medium to which endothelin-1 (ET-1) as a melanocyte activator and SCF (stem cell growth factor) were each added at a final concentration of 10 nM. From the first day of the culture, the baeomycesic acid was added at a final concentration of 50 μM (N=2). The medium was refreshed once every three days. After 14 days, the skin model was washed with PBS and photographed. Subsequently, the cell respiration activity was measured using the Alamar Blue reagent to confirm that the final concentration was not cytotoxic (the results are not shown).
Subsequently, the skin model cup was washed with PBS, and the skin sheet was removed with tweezers, transferred into a tube, and washed three times with PBS. The skin sheet was washed three times with 50% ethanol and twice with 100% ethanol, and then allowed to stand overnight at room temperature, so that it was completely dried. After 200 μL of 2 M NaOH was added, the skin sheet was dissolved at 100° C. A supernatant obtained by centrifugation of the solution was measured for absorbance at a wavelength of 405 nm, and then the melanin content was calculated. The melanin content was expressed as a relative value (%) when the melanin content in a control was normalized as 100. In the control used, ethanol or a 10 to 95 v/v % aqueous ethanol solution was added at a final concentration of 0.1 to 0.5 v/v %.

[2] = system: melanocyte-containing, 3-D cultured skin model (MEL300A); test: Cell respiration activity (Alamar Blue) of the skin model; conditions: final concentration 50 μM, after 14 days; results not shown
Method: as §1

[3] = system: endothelin (ET-1)-induced rise in intracellular calcium concentration in normal human neonatal epidermal melanocytes (NHEMs); test: Endothelin action-suppressing effect: endothelin-induced rise in intracellular calcium (Fluo4-AM, FDSS); conditions: for Effect of suppressing endothelin action (in words): 50 μM; for Rate of rise in intracellular Ca concentration: pretreated 1 minute, ET-1 100 nM, relative value, control = 100, N=6
Method: Normal human neonatal epidermal melanocytes (NHEMs, KURABO INDUSTRIES LTD.) were seeded at 3×10^4 cells/well (200 μL/well) in 96-well plates for use in fluorometry, and cultured at 37° C. under 5% CO2. The medium used was PMA (−), growth additive (HMGS)-containing Medium 254.
After culture for 3 days, the medium was removed from the culture plate by decantation, and replaced with an assay buffer containing a reagent Fluo4-AM for intracellular Ca^2++ measurement, which was followed by incubation at 37° C. for 1 hour. Subsequently, 20 seconds after the start of the measurement, the compound at a predetermined concentration was pretreated for 1 minute in a FDSS (Functional Drug Screening System) instrument, and then endothelin (ET-1, 100 nM final concentration) as a ligand was added to the wells. Fluo4-AM fluorescence was detected at the measurement wavelengths Ex. 480 nm and Em. 540 nm over time from the start of the measurement to 5 minutes later.
For each compound, the rate (%) of rise in intracellular calcium (calcium ion) concentration was calculated as a relative value (%) when an increase (Max ratio−Min ratio) in Fluo4-AM fluorescence in a control was normalized as 100. The suppressing effect of endothelin action was evaluated based on the calculated rate. In the control used, ethanol or a 10 to 95 v/v % aqueous ethanol solution was added at a final concentration of 0.1 to 0.5 v/v %. […]
The compound prepared as described above was pretreated at the final concentration shown in Table 3 and subjected to the assay system. Then, the rate of endothelin-induced rise in Ca concentration was calculated (N=6). […]

COc1cc(C)c(C(=O)Oc2cc(C)c(C(=O)O)c(O)c2C)c(O)c1C=O [Baeomycesic Acid, baeomycesic acid]
Reduction in melanin content in the skin tissue relative to the control system ([1]; 50 μM, ET-1 and SCF each 10 nM, FIG. 3, N=2): at least 40% | Skin colour of the skin sheet (photograph, FIG. 2) ([1]; 50 μM, compared with the control system): light skin color and suppressed skin blackening | Effect on melanin content / melanin production (in words) ([1]; ET-1 and SCF each 10 nM): significantly suppresses melanin production | Cytotoxicity (cell respiration activity, Alamar Blue) [2]: not cytotoxic | Effect of suppressing endothelin action (in words) [3]: significantly suppresses the rise in intracellular Ca concentration | Rate of rise in intracellular Ca concentration ([3]; compound 50 μM): 52.7%

COc1cc(C)c(C(=O)Oc2cc(C)c(C(=O)O)c(O)c2C)c(O)c1C [Barbatic Acid, Barbatic acid]
Rate of rise in intracellular Ca concentration ([3]; compound 50 μM): 38.4%

COc1cc(C)c(C(=O)Oc2cc(C)c(C(=O)O)c(O)c2C)c(OC)c1C [Diffractaic Acid, Diffractaic acid]
Rate of rise in intracellular Ca concentration ([3]; compound 50 μM): 28.0%

COc1cc(C)c(C(=O)Oc2cc(C)c(C(=O)O)c(O)c2C)c(O)c1C(=O)O [Squamatic Acid, squamatic acid, reference compound]
Effect on melanin content / melanin production (in words) ([1]; ET-1 and SCF each 10 nM): no significant reduction in melanin content; also recorded: almost no effect of suppressing melanin production | Effect of suppressing endothelin action (in words) [3]: almost no effect of suppressing endothelin action | Rate of rise in intracellular Ca concentration ([3]; compound 50 μM): 95.9% | Suppression of endothelin-induced rise in intracellular Ca concentration ([3]; compound 50 μM, relative to control): about 4%
